Experiment [1] concerns B-16 melanoma cells. Put plainly: Evaluation of melanin production-inhibitory function (degree of whiteness of cultured cells). For Evaluation of Melanin Production-Inhibition (degree of whiteness of cells): key: ++: The degree of whiteness is higher than that observed for the positive control; +: The degree of whiteness is almost identical to that of the positive control; ±: The degree of whiteness is not higher than that observed for the positive control, but higher than that observed for control; −: The degree of whiteness is almost identical to that observed for the control. It counts as cell-based. The conditions noted are these: for melanin production-inhibitory function relative to that observed for the positive control/standard: compared with 450 ppm of vitamin C-magnesium phosphate. An excerpt:
The melanin production-inhibitory function of the 5-membered ring-containing triterpenes incorporated into the foods or beverages and orally administered whitening agents of the present invention can be determined by a test method, which makes use of cultured melanocytes. The term “melanocyte(s)” used herein means cells having an ability of producing melanin and when cultivating these cells in the usual manner, the cells are blackened due to the accumulation of melanin pigment thus produced. Contrary to this, if a substance having such a melanin production-inhibitory function is incorporated into this cultivation system, the melanin production is suppressed and the skin is relatively whitened. The melanin production-inhibitory function can likewise be evaluated on the basis of this degree of relative whitening.
A culture medium (2 mL/well) was dispensed to a 6-well plate, a predetermined amount of B-16 melanoma cells was inoculated into the culture medium in each well and the cells were cultured at 37° C. and 5% CO2 by allowing the culture medium to stand. On the next day, a solution of test sample (each 5-membered ring-containing triterpene to be evaluated) having a predetermined concentration was added to and mixed with the culture medium and the cultivation was continued. On the 5th day from the initiation of the cultivation, the culture medium was exchanged and the test sample solution was again added to each well. On the next day, the culture medium was removed from each well to thus recover the cells, followed by washing the cells with PBS (phosphate-buffered physiological saline) and evaluation of the desired function based on the degree of whiteness of the cells. In this connection, the melanin production-inhibitory effect was evaluated by comparing the resulting degree of whiteness with that observed when 450 ppm of vitamin C-magnesium phosphate having a known effect was added instead of the test sample solution (positive control) and that observed when any test sample was not added (control) according to the following criteria.
The evaluation criteria for the degree of whiteness of cells are as follows: […]

The subject of experiment [2] is deposition of melanin pigment on the skin induced by the UV light irradiation. Put plainly: Animal test for the confirmation of whitening effect (UV-induced skin pigmentation, test feed). It counts as in vivo, Brown guinea pigs. The following applies: 4 weeks; for Evaluation Results CI: number of 7 animals ranked Conspicuous Imp.; for Evaluation Results MI: number of 7 animals ranked Medium Imp.; for Evaluation Results NC: number of 7 animals ranked No Change; for Evaluation Results SI: number of 7 animals ranked Slight Imp. An excerpt: More specifically, the whitening effect can be evaluated by removing a half of the hair on the back of each brown guinea pig, keeping these animals over 2 weeks while irradiating the hair-removed area with a UV lamp, dividing these guinea pigs into groups in such a manner that there is not any difference in the degree of the melanin pigmentation induced by the UN light irradiation, allowing the animals in each group to freely take a test food comprising a feed having a low vitamin C content to which a variety of triterpenes have been added and keeping these animals over additional 4 weeks to evaluate the degree of skin pigmentation while comparing the same with those observed for a control group and for a positive control group.
Brown guinea pigs (5-week-old male animals) were preliminarily kept for one week using a commercially available feed (CG-7 available from Nippon Kurea Company), a half of the hair on the back was removed and the hair-removed portion on the back was irradiated with light rays emitted from a UV lamp of 1.2 mW for 5 minutes on the 1st day and then with light rays emitted from a UV lamp of 1.0 mW for 5 minutes on the 2nd and 3rd days. Subsequently, these animals were kept over 2 weeks using a feed having a low vitamin C content (200.0 mg/kg feed), these guinea pigs were divided into 12 groups (comprising 7 animals each) in such a manner that there was not observed any difference in the degree of deposition of melanin pigment on the skin induced by the UV light irradiation between groups and then the animals were allowed to freely ingest each test feed comprising the feed having a low vitamin C content to which each triterpene had been added in an amount specified in the following Table 2. In this respect, however, the vitamin C-deficient feed per se was supplied to the control group and a vitamin C-supplemented feed was supplied to the positive control group. After 4 weeks from the supply of the test feed, the degree of the pigmentation of the skin was evaluated according to the following criteria.

[3] abbreviates: Concentration 2 ppm, rank vs 450 ppm vitamin C-magnesium phosphate.
[4] abbreviates: Concentration 4 ppm, rank vs 450 ppm vitamin C-magnesium phosphate.
Where [5] appears, read: Concentration 6 ppm, rank vs 450 ppm vitamin C-magnesium phosphate.
[6] abbreviates: Concentration 8 ppm, rank vs 450 ppm vitamin C-magnesium phosphate.
[7] abbreviates: Concentration 10 ppm, rank vs 450 ppm vitamin C-magnesium phosphate.
The mark [8] stands for this setting: Concentration 15 ppm, rank vs 450 ppm vitamin C-magnesium phosphate.
Setting [9] is: Concentration 25 ppm, rank vs 450 ppm vitamin C-magnesium phosphate.
Setting [10] is: Concentration 50 ppm, rank vs 450 ppm vitamin C-magnesium phosphate.
The mark [11] stands for this setting: 500.0 mg/kg feed, free ingestion.
Setting [12] is: positive control group, 2500.0 mg/kg feed.

Read-outs that look alike come from different tables or passages of the source.

Turning to “2,3-O-di-Stearoyl-Maslinic Acid Ethyl Ester [Compound of Synthetic Example 4]”, the “Evaluation of Melanin Production-Inhibition (degree of whiteness of cells)” value in experiment [1] (setting [3]) is reported as “±”; in experiment [1] (setting [4]) it was “±”; in experiment [1] (setting [5]), “+”; in experiment [1] (setting [6]), “++”; in experiment [1] (setting [7]), “++”; in experiment [1] (setting [8]), “++”. The “melanin production-inhibitory function relative to that observed for the positive control/standard” value in experiment [1] was “about 75 times”.
Take “2,3-O-di-Triethylsilyl-Maslinic Acid Triethylsilyl Ester [Compound of Synthetic Example 3]”: the “Evaluation of Melanin Production-Inhibition (degree of whiteness of cells)” value is reported as “−” in experiment [1] (setting [3]); “±” in experiment [1] (setting [5]); “+” in experiment [1] (setting [7]); “+” in experiment [1] (setting [9]); “+” in experiment [1] (setting [10]). In experiment [1], the “melanin production-inhibitory function relative to that observed for the positive control/standard” value is given as “about 40 times”.
Consider `C=C(C)[C@@H]1CC[C@]2(CO)CC[C@]3(C)[C@H](CC[C@@H]4[C@@]5(C)CC[C@H](O)C(C)(C)[C@@H]5CC[C@]43C)[C@@H]12` [Betulin], for which the “Evaluation of Melanin Production-Inhibition (degree of whiteness of cells)” value in experiment [1] (setting [3]) is reported as “−”. Besides, the “Evaluation of Melanin Production-Inhibition (degree of whiteness of cells)” value in experiment [1] (setting [5]) is “±”. Besides, the “Evaluation of Melanin Production-Inhibition (degree of whiteness of cells)” value in experiment [1] (setting [7]) is “±”. In experiment [1], the “melanin production-inhibitory function relative to that observed for the positive control/standard” value was “about 40 times”. In experiment [2] (setting [11]), the “Evaluation Results CI” value is on record as 1, the “Evaluation Results MI” value was determined as 3, the “Evaluation Results NC” value came to 1 and the “Evaluation Results SI” value is 2.
For the compound `CC(=O)OCC12CCC(C)(C)CC1C1=CCC3C4(C)CCC(OC(C)=O)C(C)(C)C4CCC3(C)C1(C)CC2` (stereo not shown) [Compound of Synthetic Example 5, 3,28-O-di-Acetyl-Erythrodiol], the “Evaluation of Melanin Production-Inhibition (degree of whiteness of cells)” value was “−” in experiment [1] (setting [3]); “±” in experiment [1] (setting [5]); “±” in experiment [1] (setting [7]); “+” in experiment [1] (setting [9]); “+” in experiment [1] (setting [10]). The “melanin production-inhibitory function relative to that observed for the positive control/standard” value in experiment [1] is recorded as “about 20 times”.
As to `CCOC(=O)[C@]12CC[C@@H](C)[C@H](C)[C@H]1C1=CC[C@@H]3[C@@]4(C)CC[C@H](O)C(C)(C)[C@@H]4CC[C@@]3(C)[C@]1(C)CC2` [Compound of Synthetic Example 6, Ursolic Acid Ethyl Ester], the “Evaluation of Melanin Production-Inhibition (degree of whiteness of cells)” value in experiment [1] (setting [3]) is “±”; in experiment [1] (setting [4]), “+”; in experiment [1] (setting [5]), “++”; in experiment [1] (setting [6]) it was “++”; in experiment [1] (setting [7]) it was “++”. Moreover, the “melanin production-inhibitory function relative to that observed for the positive control/standard” value in experiment [1] is listed as “about 110 times”.
With `CC(=O)OC[C@]12CC[C@@H](C)[C@H](C)[C@H]1C1=CC[C@@H]3[C@@]4(C)CC[C@H](OC(C)=O)C(C)(C)[C@@H]4CC[C@@]3(C)[C@]1(C)CC2` [Compound of Synthetic Example 7, 3,28-O-di-Acetyl-Uvaol], the “Evaluation of Melanin Production-Inhibition (degree of whiteness of cells)” value was “−” in experiment [1] (setting [3]); “−” in experiment [1] (setting [5]); “±” in experiment [1] (setting [7]); “+” in experiment [1] (setting [9]); “+” in experiment [1] (setting [10]). Also, the “melanin production-inhibitory function relative to that observed for the positive control/standard” value in experiment [1] is recorded as “about 20 times”.
On to `C=C(C)[C@@H]1CC[C@]2(C(=O)OCC)CC[C@]3(C)[C@H](CC[C@@H]4[C@@]5(C)CC[C@H](O)C(C)(C)[C@@H]5CC[C@]43C)[C@@H]12` [Compound of Synthetic Example 8, Betulinic Acid Ethyl Ester], for which the “Evaluation of Melanin Production-Inhibition (degree of whiteness of cells)” value is given as “−” in experiment [1] (setting [3]); “±” in experiment [1] (setting [5]); “±” in experiment [1] (setting [7]); “+” in experiment [1] (setting [9]); “+” in experiment [1] (setting [10]). For the same compound, the “melanin production-inhibitory function relative to that observed for the positive control/standard” value in experiment [1] is reported as “about 20 times”.
As for `C=C(C)[C@@H]1CC[C@]2(COC(C)=O)CC[C@]3(C)[C@H](CC[C@@H]4[C@@]5(C)CC[C@H](OC(C)=O)C(C)(C)[C@@H]5CC[C@]43C)[C@@H]12` [Compound of Synthetic Example 9, 3,28-O-di-Acetyl-Betulin], the “Evaluation of Melanin Production-Inhibition (degree of whiteness of cells)” value is given as “−” in experiment [1] (setting [3]); “−” in experiment [1] (setting [5]); “±” in experiment [1] (setting [7]); “±” in experiment [1] (setting [9]); “+” in experiment [1] (setting [10]). Moreover, the “melanin production-inhibitory function relative to that observed for the positive control/standard” value in experiment [1] is on record as “about 10 times”.
As to `O=c1cc(CO)occ1O` [Kojic acid, reference compound], the “Evaluation of Melanin Production-Inhibition (degree of whiteness of cells)” value in experiment [1] (setting [7]) is “−”; in experiment [1] (setting [8]), “−”; in experiment [1] (setting [9]), “−”; in experiment [1] (setting [10]), “±”; in experiment [1] (Concentration 100 ppm, rank vs 450 ppm vitamin C-magnesium phosphate) it was “±”; in experiment [1] (Concentration 200 ppm, rank vs 450 ppm vitamin C-magnesium phosphate) it was “+”. Also, the “Evaluation of Melanin Production-Inhibition (degree of whiteness of cells)” value is reported as “++” in experiment [1] (Concentration 300 ppm, rank vs 450 ppm vitamin C-magnesium phosphate) and “++” in experiment [1] (Concentration 450 ppm, rank vs 450 ppm vitamin C-magnesium phosphate).
Regarding `O=C1O[C@H]([C@@H](O)CO)C(O)=C1O` [L-Ascorbic acid, reference compound], in experiment [2] (setting [12]), the “Evaluation Results CI” value was 0, the “Evaluation Results MI” value is listed as 1, the “Evaluation Results NC” value is reported as 2 and the “Evaluation Results SI” value came out at 4.
In the case of `CC1(C)CC[C@]2(C(=O)O)CC[C@]3(C)C(=CC[C@@H]4[C@@]5(C)C[C@@H](O)[C@H](O)C(C)(C)[C@@H]5CC[C@]43C)[C@@H]2C1` [Purified maslinic acid 3, maslinic acid], the “Evaluation of Melanin Production-Inhibition (degree of whiteness of cells)” value in experiment [1] was “± and + and ++”.

Source of the values: patent US20040086553A1, “Foods and beverages for whitening and orally administered whitening agents” (The Nisshin OilliO, Ltd., priority 2000, published 2004).
